These results are taken from PubChem BioAssay (NCI).

Each structure is given as a SMILES string.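 The compound was tested at five concentrations on cells cultured in 96-well plates, with a 48-hour exposure period. The concentration for full growth arrest is given as TGI.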

Test systems include HCC-2998 colon; 786-0 renal; SNB-19 CNS; KM12 colon; SF-268 CNS; HS 578T breast; COLO 205 colon; NCI-H226 lung; EKVX NSCLC; SNB-75 CNS; MDA-N; MALME-3M melanoma; OVCAR-5 ovarian; IGROV1 ovarian; HT29 colon; SF-295 CNS; HOP-62 NSCLC; HCT-116 colon; RXF 393 renal.
Assay in all cases: growth of human tumour cells (NCI), 48 h

Turning to `NC(=O)N=Nc1c2ccccc2n2[nH]ccc12`, the TGI in the test on HCC-2998 colon, in the test with 786-0 renal, in the test on SNB-19 CNS, with KM12 colon, in the test with SF-268 CNS and with HS 578T breast was > 100 µM in each case. Further, the TGI in the test with COLO 205 colon, in the test on NCI-H226 lung, in the test on EKVX NSCLC, in the test on SNB-75 CNS, in the test on MDA-N and in the test on MALME-3M melanoma was > 100 µM each time. Moreover, the TGI with OVCAR-5 ovarian, in the test with IGROV1 ovarian, in the test on HT29 colon, in the test on SF-295 CNS, in the test on HOP-62 NSCLC and in the test on HCT-116 colon was > 100 µM throughout. This compound registered a TGI in the test on RXF 393 renal of 59.4 µM.

For the compound `C=[N+](CNC(=O)CNC(=O)C(Cc1ccccc1)NC(=O)OC(C)(C)C)C(=O)CNC(=O)C(Cc1ccccc1)NC(=O)OC(C)(C)C` (stereo unspecified), the TGI in the test with HCC-2998 colon, with 786-0 renal, with SNB-19 CNS, in the test with KM12 colon, in the test on SF-268 CNS and in the test with HS 578T breast was > 100 µM each time. In addition, the TGI in the test on COLO 205 colon, in the test on NCI-H226 lung, with EKVX NSCLC, with SNB-75 CNS, in the test on MDA-N and in the test on MALME-3M melanoma was > 100 µM in each case. Moreover, the TGI with OVCAR-5 ovarian, in the test with IGROV1 ovarian, in the test with HT29 colon, in the test on SF-295 CNS, in the test with HOP-62 NSCLC and in the test with HCT-116 colon was > 100 µM throughout. In the test with RXF 393 renal, the TGI was > 100 µM.

For the compound `COc1ccc(-c2cc(-c3ccccc3)nc(N)n2)c(O)c1`, the TGI with HCC-2998 colon, in the test on 786-0 renal, in the test on SNB-19 CNS, in the test with KM12 colon, in the test with SF-268 CNS and in the test on HS 578T breast was > 100 µM each time. For the same compound, the TGI in the test with COLO 205 colon, in the test on NCI-H226 lung, with EKVX NSCLC, in the test with SNB-75 CNS, with MDA-N and in the test with MALME-3M melanoma was > 100 µM each time. Also, the TGI in the test with OVCAR-5 ovarian, in the test with IGROV1 ovarian, in the test on HT29 colon, in the test with SF-295 CNS, with HOP-62 NSCLC and in the test on HCT-116 colon was > 100 µM each time. Also, the TGI in the test with RXF 393 renal is > 100 µM.

Take `S=c1sscc1N1CCSc2ssc(=S)c21`: the TGI with HCC-2998 colon was > 100 µM; with 786-0 renal, > 100 µM; with SNB-19 CNS, 63.5 µM; with KM12 colon, > 100 µM; in the test with SF-268 CNS, > 100 µM; in the test with HS 578T breast, > 100 µM. For the same compound, the TGI in the test with COLO 205 colon is > 100 µM; in the test with NCI-H226 lung, > 100 µM; in the test with EKVX NSCLC, 49.8 µM; in the test on SNB-75 CNS, 43.5 µM; in the test with MDA-N, > 100 µM; in the test on MALME-3M melanoma, > 100 µM. The TGI with OVCAR-5 ovarian, with IGROV1 ovarian, in the test on HT29 colon, in the test on HCT-116 colon and with RXF 393 renal was > 100 µM in each case.

Regarding `CC(C)[C@H]1NC(=O)[C@H]2N=C(O[C@@H]2C)[C@@H]2CCCN2C(=O)[C@H](Cc2ccccc2)NC(=O)[C@@H]2COC(=N2)[C@@H](Cc2ccccc2)NC(=O)[C@@H]2COC1=N2`, the TGI with HCC-2998 colon, with 786-0 renal, with SNB-19 CNS, in the test on KM12 colon, in the test on SF-268 CNS and in the test with HS 578T breast was > 100 µM throughout. Besides, the TGI in the test with COLO 205 colon is > 100 µM; with NCI-H226 lung it was > 100 µM; in the test on EKVX NSCLC it was > 100 µM; in the test on SNB-75 CNS, 75.6 µM; in the test on MDA-N it was > 100 µM; with MALME-3M melanoma, > 100 µM. In addition, the TGI with OVCAR-5 ovarian, in the test on IGROV1 ovarian, with HT29 colon, with SF-295 CNS, with HOP-62 NSCLC and in the test with HCT-116 colon was > 100 µM each time. Also, in the test on RXF 393 renal, the TGI was > 100 µM.

For the compound `COc1cc(C2SC(N)=Nc3c2c(C)nn3C(=O)c2ccc(Cl)cc2)ccc1O` (stereo unspecified), the TGI in the test on HCC-2998 colon, with 786-0 renal, in the test with SNB-19 CNS, with KM12 colon, in the test on SF-268 CNS and in the test with HS 578T breast was > 10 µM each time. In addition, the TGI in the test on COLO 205 colon was > 10 µM; in the test with NCI-H226 lung, > 10 µM; in the test with EKVX NSCLC, > 10 µM; in the test on SNB-75 CNS it was > 10 µM; in the test with MDA-N it was 0.406 µM; in the test on MALME-3M melanoma, > 10 µM. Besides, the TGI in the test on OVCAR-5 ovarian, in the test on IGROV1 ovarian, in the test with HT29 colon, with SF-295 CNS, in the test with HOP-62 NSCLC and with HCT-116 colon was > 10 µM in each case. Also, in the test on RXF 393 renal, the TGI was > 10 µM.

In the case of `COc1ccccc1NC1=NCC(C)S1` (stereo unspecified), the TGI in the test with HCC-2998 colon, with 786-0 renal, in the test with SNB-19 CNS, with KM12 colon, in the test on SF-268 CNS and in the test with HS 578T breast was > 100 µM in each case. In addition, the TGI in the test on COLO 205 colon, with NCI-H226 lung, in the test on EKVX NSCLC, in the test on SNB-75 CNS, in the test on MDA-N and in the test on MALME-3M melanoma was > 100 µM each time. The TGI with OVCAR-5 ovarian, in the test with IGROV1 ovarian, in the test on HT29 colon, with SF-295 CNS, in the test with HOP-62 NSCLC and with HCT-116 colon was > 100 µM each time. For the same compound, the TGI with RXF 393 renal was > 100 µM.
